Reference: US20210277008A1, “IMIDAZO[1,2-B]PYRIDAZINE DERIVATIVES AS TRK INHIBITORS” (BenevolentAI Bio Limited, priority 2018, published 2021)

How the values were obtained:
Assay type in all cases: biochemical
[1] = target: T1, TrkA (Homo sapiens, UniProt P04629); test: HTRF KinEASE kinase assay, TrkA enzyme; details: recombinant Human TRK enzyme, NTRK1 4 nM, read-out: TrkA Enz (nM), Trk inhibition activity expressed as IC50
T1 construct: purchased Invitrogen
Method: (§1) To determine the IC50 of small molecule compounds for the Human TRK receptors, HTRF® KinEASE™ kinase kits from Cisbio were used. Assays were carried out in low volume, black 384-well plates.
(§2) Recombinant Human TRK enzymes (Invitrogen) were incubated in the presence or absence of the compound (11-point dose response with FAC as 10 μM) for 30 minutes at 23° C. Kinase reaction was started by addition of ATP to a mixture containing the enzyme (NTRK1-4 nM, NTRK2-1 nM, NTRK3-10 nM) and substrate (1 μM). Kinase reaction was allowed to carry on for 10 to 45 minutes at 23° C. after which it was stopped by addition of the detection mix (supplied by vendor) containing EDTA, TK-Ab-labelled with Eu^3+-cryptate (1:200 dilutions) and Streptavidin-XL665 (250 nM). Assay plates were incubated in this detection mix for 60 minutes at 23° C. The resulting TR-FRET signal, calculated as the fluorescence ratio at 665/620 nm, was read on an Envision and was proportional to the level of phosphorylation of the peptide in the presence or absence of the compound. The uniformity of the plates were assured with Z′ value [1-{3*(SDHPE+SDZPE)/(ZPE-HPE)}]. The percent (%) effect i.e. Inhibition of compound was calculated in comparison to the signal in the positive (HPE) and negative control (ZPE) wells within each assay plate. The endpoint value % Inhibition for the Standard compound was evaluated in each experiment as a quality control measure. IC50 was determined by plotting compound inhibition at respective dose in Graphpad prism5 using four parameter logistic curve fit.

[2] = target: T2, TrkB (Homo sapiens, UniProt Q16620); test: HTRF KinEASE kinase assay, TrkB enzyme; details: recombinant Human TRK enzyme, NTRK2 1 nM, read-out: TrkB Enz (nM), Trk inhibition activity expressed as IC50
T2 construct: purchased Invitrogen
T2 sequence (Q16620 32-822): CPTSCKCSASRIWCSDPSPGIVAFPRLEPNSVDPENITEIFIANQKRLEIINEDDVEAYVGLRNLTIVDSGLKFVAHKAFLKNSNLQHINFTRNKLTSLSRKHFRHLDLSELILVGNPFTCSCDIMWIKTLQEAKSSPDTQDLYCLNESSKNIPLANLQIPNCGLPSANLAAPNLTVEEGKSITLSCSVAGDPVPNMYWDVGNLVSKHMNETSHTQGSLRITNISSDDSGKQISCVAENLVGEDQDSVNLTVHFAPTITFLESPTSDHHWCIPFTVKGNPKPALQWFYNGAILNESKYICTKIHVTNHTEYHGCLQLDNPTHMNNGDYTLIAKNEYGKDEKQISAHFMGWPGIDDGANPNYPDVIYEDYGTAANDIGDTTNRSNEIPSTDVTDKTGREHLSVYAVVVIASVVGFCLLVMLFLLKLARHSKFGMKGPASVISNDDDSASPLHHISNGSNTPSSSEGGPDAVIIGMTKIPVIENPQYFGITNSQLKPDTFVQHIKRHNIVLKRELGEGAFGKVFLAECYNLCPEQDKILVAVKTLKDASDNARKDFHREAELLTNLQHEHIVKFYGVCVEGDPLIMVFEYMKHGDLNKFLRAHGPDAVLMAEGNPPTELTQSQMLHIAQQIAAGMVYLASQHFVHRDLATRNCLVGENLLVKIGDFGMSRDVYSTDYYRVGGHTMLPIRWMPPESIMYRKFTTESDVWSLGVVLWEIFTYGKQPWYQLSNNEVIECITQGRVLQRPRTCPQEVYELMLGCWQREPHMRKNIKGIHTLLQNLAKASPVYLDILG
Method: as §1, §2

[3] = target: T3, TrkC (Homo sapiens, UniProt Q16288); test: HTRF KinEASE kinase assay, TrkC enzyme; details: recombinant Human TRK enzyme, NTRK3 10 nM, read-out: TrkC Enz (nM), Trk inhibition activity expressed as IC50
T3 construct: purchased Invitrogen
T3 sequence (Q16288 32-839): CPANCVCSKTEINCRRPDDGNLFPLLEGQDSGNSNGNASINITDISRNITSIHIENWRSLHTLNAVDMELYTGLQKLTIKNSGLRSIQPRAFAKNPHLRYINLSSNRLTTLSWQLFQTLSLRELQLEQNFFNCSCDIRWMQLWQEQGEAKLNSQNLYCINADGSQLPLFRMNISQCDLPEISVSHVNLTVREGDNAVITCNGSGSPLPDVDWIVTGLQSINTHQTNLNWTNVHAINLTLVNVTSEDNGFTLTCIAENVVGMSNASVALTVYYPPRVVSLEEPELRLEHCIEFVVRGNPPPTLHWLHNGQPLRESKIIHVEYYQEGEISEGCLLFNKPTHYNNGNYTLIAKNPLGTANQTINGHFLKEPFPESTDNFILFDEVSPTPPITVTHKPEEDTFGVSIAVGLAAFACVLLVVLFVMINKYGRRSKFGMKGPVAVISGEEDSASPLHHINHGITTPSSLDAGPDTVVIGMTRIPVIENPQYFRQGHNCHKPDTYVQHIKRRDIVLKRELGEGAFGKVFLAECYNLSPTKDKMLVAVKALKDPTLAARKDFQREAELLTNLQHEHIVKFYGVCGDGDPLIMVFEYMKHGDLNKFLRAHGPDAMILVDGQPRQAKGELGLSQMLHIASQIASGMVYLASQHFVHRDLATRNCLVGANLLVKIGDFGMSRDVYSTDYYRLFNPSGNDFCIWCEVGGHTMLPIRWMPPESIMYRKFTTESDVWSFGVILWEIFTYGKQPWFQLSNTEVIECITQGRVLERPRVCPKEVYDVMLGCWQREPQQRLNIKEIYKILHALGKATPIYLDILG
Method: as §1, §2

T1 sequence (P04629 33-796): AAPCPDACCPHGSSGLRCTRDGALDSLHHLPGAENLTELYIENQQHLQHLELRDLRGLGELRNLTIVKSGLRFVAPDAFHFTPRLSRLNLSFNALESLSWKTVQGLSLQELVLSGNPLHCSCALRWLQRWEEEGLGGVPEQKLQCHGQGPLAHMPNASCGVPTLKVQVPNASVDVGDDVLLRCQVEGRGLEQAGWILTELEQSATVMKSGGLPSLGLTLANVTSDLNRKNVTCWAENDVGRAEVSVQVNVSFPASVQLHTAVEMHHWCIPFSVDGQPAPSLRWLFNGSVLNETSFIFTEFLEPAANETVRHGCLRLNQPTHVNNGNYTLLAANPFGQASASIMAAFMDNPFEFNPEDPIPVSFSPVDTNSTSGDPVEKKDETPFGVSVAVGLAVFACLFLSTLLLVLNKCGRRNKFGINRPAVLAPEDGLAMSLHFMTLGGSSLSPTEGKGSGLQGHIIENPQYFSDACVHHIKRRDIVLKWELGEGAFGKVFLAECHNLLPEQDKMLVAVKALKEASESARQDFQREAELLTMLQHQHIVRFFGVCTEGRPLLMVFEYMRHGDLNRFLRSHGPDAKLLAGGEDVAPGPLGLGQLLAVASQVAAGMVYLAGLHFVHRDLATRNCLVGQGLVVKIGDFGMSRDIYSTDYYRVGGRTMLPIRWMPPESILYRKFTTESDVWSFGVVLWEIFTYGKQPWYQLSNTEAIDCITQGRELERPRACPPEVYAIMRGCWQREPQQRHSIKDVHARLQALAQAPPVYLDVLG

| IC50 [1] [nM] | IC50 [2] [nM] | IC50 [3] [nM] | Structure (SMILES) |
| --- | --- | --- | --- |
| 1.1 | 0.41 | 1.61 | CCCCN/C(=N\C#N)c1cnc2ccc(N3C[C@@H](F)C[C@@H]3c3cc(F)ccc3SC)nn12 [Example 5, (Z)-N-butyl-N′-cyano-6-[(2R,4S)-4-fluoro-2-[5-fluoro-2-(methylsulfanyl)phenyl]pyrrolidin-1-yl]imidazo[1,2-b]pyridazine-3-carboximidamide] |
| 1.44 | 1.55 | 3.16 | CSc1ccc(F)cc1[C@H]1CCCN1c1ccc2ncc(/C(=N/C#N)NCc3cccc(O)c3)n2n1 [Example 7, (Z)-N′-cyano-6-[(2R)-2-[5-fluoro-2-(methylsulfanyl)phenyl]pyrrolidin-1-yl]-N-[(3-hydroxyphenyl)methyl]imidazo[1,2-b]pyridazine-3-carboximidamide] |
| 0.97 | 0.23 | 1 | CCN/C(=N\C#N)c1cnc2ccc(N3C[C@@H](F)C[C@@H]3c3cc(F)ccc3SC)nn12 [Example 4, (Z)-N′-cyano-N-ethyl-6-[(2R,4S)-4-fluoro-2-[5-fluoro-2-(methylsulfanyl)phenyl]pyrrolidin-1-yl]imidazo[1,2-b]pyridazine-3-carboximidamide] |
| 0.95 | 0.88 | 1.6 | CSc1ccc(F)cc1[C@H]1CCCN1c1ccc2ncc(/C(=N/C#N)N[C@@H]3CCCOC3)n2n1 [Example 1, (Z)-N′-cyano-6-[(2R)-2-[5-fluoro-2-(methylsulfanyl)phenyl]pyrrolidin-1-yl]-N-[(3R)-oxan-3-yl]imidazo[1,2-b]pyridazine-3-carboximidamide] |
| 1.52 | 0.7 | 1.91 | CSc1ccc(F)cc1[C@H]1C[C@H](F)CN1c1ccc2ncc(/C(=N/C#N)NC3CCCCC3)n2n1 [Example 6, (Z)-N′-cyano-N-cyclohexyl-6-[(2R,4S)-4-fluoro-2-[5-fluoro-2-(methylsulfanyl)phenyl]pyrrolidin-1-yl]imidazo[1,2-b]pyridazine-3-carboximidamide] |
| 1.17 | 0.37 | 1.53 | CCN/C(=N\C#N)c1cnc2ccc(N3C[C@@H](F)C[C@@H]3c3cc(F)cc(SC)c3)nn12 [Example 3, (Z)-N′-cyano-N-ethyl-6-[(2R,4S)-4-fluoro-2-[5-fluoro-3-(methylsulfanyl)phenyl]pyrrolidin-1-yl]imidazo[1,2-b]pyridazine-3-carboximidamide] |
| 1.04 | 0.83 | 1.78 | CSc1ccc(F)cc1[C@H]1CCCN1c1ccc2ncc(/C(=N/C#N)N[C@H]3CCCOC3)n2n1 [Example 2, (Z)-N′-cyano-6-[(2R)-2-[5-fluoro-2-(methylsulfanyl)phenyl]pyrrolidin-1-yl]-N-[(3S)-oxan-3-yl]imidazo[1,2-b]pyridazine-3-carboximidamide] |
